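Compound exposure: 48 hours, 5 concentrations, 96-well plates. TGI: total growth inhibition.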
Assays:
Experiment in all cases: NCI-60 cell line screen, 48 h
SNB-19 CNS = test system: SNB-19 CNS
MCF7 breast = test system: MCF7 breast
U251 CNS = test system: U251 CNS
SK-MEL-28 melanoma = test system: SK-MEL-28 melanoma
HS 578T breast = test system: HS 578T breast
MALME-3M melanoma = test system: MALME-3M melanoma
HL-60(TB) leukemia = test system: HL-60(TB) leukemia
A549 NSCLC = test system: A549 NSCLC
IGROV1 ovarian = test system: IGROV1 ovarian
HCT-15 colon = test system: HCT-15 colon
K-562 leukemia = test system: K-562 leukemia
DU-145 prostate = test system: DU-145 prostate
SF-295 CNS = test system: SF-295 CNS
HCT-116 colon = test system: HCT-116 colon
UO-31 renal = test system: UO-31 renal
MDA-MB-231 breast = test system: MDA-MB-231 breast
T-47D breast = test system: T-47D breast
NCI-H460 lung = test system: NCI-H460 lung
UACC-257 melanoma = test system: UACC-257 melanoma
OVCAR-5 ovarian = test system: OVCAR-5 ovarian
MDA-N = test system: MDA-N
HOP-92 NSCLC = test system: HOP-92 NSCLC
UACC-62 melanoma = test system: UACC-62 melanoma
OVCAR-8 ovarian = test system: OVCAR-8 ovarian
TK-10 renal = test system: TK-10 renal
HT29 colon = test system: HT29 colon
NCI-H522 lung = test system: NCI-H522 lung
786-0 renal = test system: 786-0 renal
SNB-75 CNS = test system: SNB-75 CNS
SN12C renal = test system: SN12C renal
RPMI-8226 leukemia = test system: RPMI-8226 leukemia
NCI/ADR-RES ovarian = test system: NCI/ADR-RES ovarian
CCRF-CEM leukemia = test system: CCRF-CEM leukemia
MOLT-4 leukemia = test system: MOLT-4 leukemia
SK-MEL-5 melanoma = test system: SK-MEL-5 melanoma
BT-549 breast = test system: BT-549 breast
SK-MEL-2 melanoma = test system: SK-MEL-2 melanoma
SK-OV-3 ovarian = test system: SK-OV-3 ovarian
A498 renal = test system: A498 renal
COLO 205 colon = test system: COLO 205 colon
NCI-H226 lung = test system: NCI-H226 lung
HOP-62 NSCLC = test system: HOP-62 NSCLC
SF-268 CNS = test system: SF-268 CNS
SW-620 colon = test system: SW-620 colon
EKVX NSCLC = test system: EKVX NSCLC
RXF 393 renal = test system: RXF 393 renal
SR leukemia = test system: SR leukemia
M14 melanoma = test system: M14 melanoma
LOX IMVI melanoma = test system: LOX IMVI melanoma
ACHN renal = test system: ACHN renal
SF-539 CNS = test system: SF-539 CNS
OVCAR-3 ovarian = test system: OVCAR-3 ovarian
PC-3 prostate = test system: PC-3 prostate

Measured: TGI

Cc1c(C)c(C)c(CC2(C)CSC2)c(CC2(C)CSC2)c1C
> 100 µM: SNB-19 CNS | MCF7 breast | U251 CNS | SK-MEL-28 melanoma | HS 578T breast | MALME-3M melanoma | HL-60(TB) leukemia | A549 NSCLC | IGROV1 ovarian | HCT-15 colon | K-562 leukemia | DU-145 prostate | SF-295 CNS | HCT-116 colon | UO-31 renal | MDA-MB-231 breast | T-47D breast | NCI-H460 lung | UACC-257 melanoma | OVCAR-5 ovarian | MDA-N | HOP-92 NSCLC | UACC-62 melanoma | OVCAR-8 ovarian | TK-10 renal | HT29 colon | NCI-H522 lung | 786-0 renal | SNB-75 CNS | SN12C renal | RPMI-8226 leukemia | NCI/ADR-RES ovarian | CCRF-CEM leukemia | MOLT-4 leukemia | SK-MEL-5 melanoma | BT-549 breast | SK-MEL-2 melanoma | SK-OV-3 ovarian | A498 renal | COLO 205 colon | NCI-H226 lung | HOP-62 NSCLC | SF-268 CNS | SW-620 colon | EKVX NSCLC | RXF 393 renal | SR leukemia | M14 melanoma | LOX IMVI melanoma | ACHN renal | SF-539 CNS | OVCAR-3 ovarian | PC-3 prostate
